Source: PubChem BioAssay AID2060891 (Molecular Pharmacology Branch, DTP, NCI, 2025)
One block for each molecule: values may come before it.

System: K98450-129-R-PDC complex spheroid growth, percent test/control
Experiment: Anticancer human tumor K98450-129-R-PDC patient-derived colon adenocarcinoma cell line growth inhibition [RAS]
Details: for IC50: curve of first compound; for viability, T/C: stronger effect = lower value
Description: RAS pathway inhibitors in Combinations in Complex Spheroids
A high-throughput screen of multi-cell type tumor spheroids was designed to identify active combinations of RAS pathway inhibitors and targeted small molecules. Complex spheroids include a stromal component modeled by human endothelial cells (HUVEC) and fibroblasts modeled by human mesenchymal stem cells (MSCs). The concentration ranges selected for each drug and investigational agent were based upon clinically achievable concentrations if the clinical Cmax of the agent was known.
Compounds. The drugs and investigational agents: abemaciclib (NSC768073), cobimetinib (NSC768068), divarasib (GDC6063, NSC841802), docetaxel (NSC628503), GDC-1971 (RLY-1971, NSC841576), gemcitabine (NSC613327), inavolisib (NSC800729), ipatasertib (NSC767898), KB-0742 (NSC834161), MRTX-1133 (NSC836407), osimertinib (NSC779217), RMC-4630 (NSC839698), RMC-6236 (NSC851965), RMC-6291 (NSC852671), Ro-3306 (NSC812927), sapanisertib (NSC764658), SN-38 (NSC673596), staurosporine (NSC755774), SY5609 (NSC837396), and tovorafenib (DAY101, NSC766906), were obtained from the National Cancer Institute (NCI) Developmental Therapeutics Program Chemical Repository. The FDA-approved anticancer drug set is available from the NCI Developmental Therapeutics Program. […] The stock solutions were prepared in dimethyl sulfoxide (DMSO, Sigma-Aldrich, St. Louis, MO, cat. D2650) at 800-fold the tested concentration and stored at -70 degrees C prior to their use. All drugs and investigational agents were tested over a range starting from a high concentration at or near the clinical Cmax and decreasing in half-log increments. If the clinical Cmax for an agent had not been determined, the highest concentration tested was 10 microM.
Cell Culture. All cells were maintained in an incubator at 37 degrees C and 5% CO2 with 95% humidity. The PDC lines were cultured according to standard operating procedures established by the NCI PDMR. All PDCs were thawed and cultured in Matrigel-coated flasks prepared with a working solution of 1X Ham's F-12 nutrient mix, without supplementation (Invitrogen, Waltham, MA, cat. 11765054), 100 U/mL penicillin-streptomycin (Invitrogen, cat. 15140122), and 2.5% Matrigel (Corning Inc., Corning, NY, cat. 354248) for the first three passages. The 362531-283-R-J2-PDC and 782815-120-R-J1-PDC lines were cultured in 6C/Colon 1B media, which includes advanced DMEM/F-12 (Thermo Fisher Scientific, cat. 12634028), 10 mM HEPES (Thermo Fisher Scientific, cat. 15630080), 1X GlutaMAX supplement (Thermo Fisher Scientific, cat. 35050061), 0.1 mg/mL primocin (InvivoGen, San Diego, CA, cat. ant-pm-2), 10% defined fetal bovine serum, heat inactivated (HyClone Laboratories Inc., Logan, UT, cat. SH30070.03HI), 50% L-WRN conditioned media (ATCC, cat. CRL-3276), 1.25 mM N-Acetyl-L-cysteine (Sigma-Aldrich, cat. A9165), 10 mM nicotinamide (Sigma-Aldrich, cat. N0636), 1X B-27 supplement (Thermo Fisher Scientific, cat. 17504044), 1X N-2 supplement (Thermo Fisher Scientific, cat. 17502048), 50 ng/mL human EGF (Thermo Fisher Scientific, cat. PHG0311), and 10 microM Y-27632 dihydrochloride (Tocris Bioscience, cat. 1254). The K12877-001-R-J1-PDC line was cultured in 6I media, which includes all 6C/Colon 1B media plus 10 ng/mL human FGF-10 (PeproTech, cat. 100-26), 1 ng/mL human FGF-2 (PeproTech, cat. 100-18B), 1 µM prostaglandin E2 (Tocris Bioscience, cat. 2296), […] hydrocortisone (Sigma-Aldrich, cat. H4001), and […] bovine insulin (Sigma-Aldrich, cat. I6634). The K86415-001-R-J1-PDC line was cultured in 6D media, which includes all 6C/Colon 1B media components minus the L-WRN conditioned media. The 485176-168-R4-J1-PDC was cultured in PANC media, which includes all 6C/Colon 1B media plus 100 ng/mL human FGF-10 (PeproTech, cat. 100-26), 500 nM SB-431542 (Selleckchem, cat. S1067), and 10 nM gastrin (Tocris Bioscience, cat. 3006). […]

[1] = second compound 0.0316 µM, first compound 0.0316 µM
[2] = second compound 0.0316 µM, first compound 0.1 µM
[3] = second compound 0.0316 µM, first compound 0.316 µM
[4] = second compound 0.0316 µM, first compound 1 µM
[5] = second compound 0.0316 µM, first compound 3.16 µM
[6] = second compound 0.0316 µM, first compound 10 µM
[7] = second compound 0.1 µM, first compound 0.0316 µM
[8] = second compound 0.1 µM, first compound 0.1 µM
[9] = second compound 0.1 µM, first compound 0.316 µM
[10] = second compound 0.1 µM, first compound 1 µM
[11] = second compound 0.1 µM, first compound 3.16 µM
[12] = second compound 0.1 µM, first compound 10 µM
[13] = second compound 0.316 µM, first compound 0.0316 µM
[14] = second compound 0.316 µM, first compound 0.1 µM
[15] = second compound 0.316 µM, first compound 0.316 µM
[16] = second compound 0.316 µM, first compound 1 µM
[17] = second compound 0.316 µM, first compound 3.16 µM
[18] = second compound 0.316 µM, first compound 10 µM
[19] = second compound 1 µM, first compound 0.0316 µM
[20] = second compound 1 µM, first compound 0.1 µM
[21] = second compound 1 µM, first compound 0.316 µM
[22] = second compound 1 µM, first compound 1 µM
[23] = second compound 1 µM, first compound 3.16 µM
[24] = second compound 1 µM, first compound 10 µM
[25] = second compound 3.16 µM, first compound 0.0316 µM
[26] = second compound 3.16 µM, first compound 0.1 µM
[27] = second compound 3.16 µM, first compound 0.316 µM
[28] = second compound 3.16 µM, first compound 1 µM
[29] = second compound 3.16 µM, first compound 3.16 µM
[30] = second compound 3.16 µM, first compound 10 µM
[31] = second compound 10 µM, first compound 0.0316 µM
[32] = second compound 10 µM, first compound 0.1 µM
[33] = second compound 10 µM, first compound 0.316 µM
[34] = second compound 10 µM, first compound 1 µM
[35] = second compound 10 µM, first compound 3.16 µM
[36] = second compound 10 µM, first compound 10 µM
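Note: spheroids exposed to agents for seven days before the viability readout.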
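Throughout, for viability, T/C: luminescence used as a proxy for viable cell amount.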

IC50 (second compound 0.0316 µM): > 10 µM
IC50 (second compound 0.1 µM): > 10 µM
IC50 (second compound 0.316 µM): > 10 µM
IC50 (second compound 1 µM): > 10 µM
IC50 (second compound 3.16 µM): > 10 µM
IC50 (second compound 10 µM): > 10 µM
SMILES: CC(C)NCC(C(=O)N1CCN(c2ncnc3c2C(C)CC3O)CC1)c1ccc(Cl)cc1 (stereo unspecified) + C#Cc1c(F)ccc2cc(O)cc(-c3ncc4c(N5CC6CCC(C5)N6)nc(OCC56CCCN5CC(F)C6)nc4c3F)c12
viability, T/C [1]: 110%
viability, T/C [2]: 106%
viability, T/C [3]: 92.9%
viability, T/C [4]: 99.2%
viability, T/C [5]: 104%
viability, T/C [6]: 96.7%
viability, T/C [7]: 110%
viability, T/C [8]: 96.9%
viability, T/C [9]: 106%
viability, T/C [10]: 98%
viability, T/C [11]: 113%
viability, T/C [12]: 103%
viability, T/C [13]: 105%
viability, T/C [14]: 96.1%
viability, T/C [15]: 110%
viability, T/C [16]: 97.3%
viability, T/C [17]: 104%
viability, T/C [18]: 98.6%
viability, T/C [19]: 99.5%
viability, T/C [20]: 96.8%
viability, T/C [21]: 96.1%
viability, T/C [22]: 95.7%
viability, T/C [23]: 104%
viability, T/C [24]: 99.2%
viability, T/C [25]: 95.7%
viability, T/C [26]: 86.5%
viability, T/C [27]: 97.3%
viability, T/C [28]: 93.8%
viability, T/C [29]: 98.7%
viability, T/C [30]: 88.2%
viability, T/C [31]: 83.9%
viability, T/C [32]: 82.6%
viability, T/C [33]: 81.9%
viability, T/C [34]: 85.9%
viability, T/C [35]: 91.5%
viability, T/C [36]: 81.9%

IC50 (second compound 0.0316 µM): > 10 µM
IC50 (second compound 0.1 µM): > 10 µM
IC50 (second compound 0.316 µM): > 10 µM
IC50 (second compound 1 µM): > 10 µM
IC50 (second compound 3.16 µM): > 10 µM
IC50 (second compound 10 µM): > 10 µM
SMILES: CC(Nc1ccc2c(c1)OCCn1cc(N3C(=O)OCC3C(F)F)nc1-2)C(N)=O (stereo unspecified) + C#Cc1c(F)ccc2cc(O)cc(-c3ncc4c(N5CC6CCC(C5)N6)nc(OCC56CCCN5CC(F)C6)nc4c3F)c12
viability, T/C [1]: 105%
viability, T/C [2]: 94.6%
viability, T/C [3]: 95.1%
viability, T/C [4]: 94.4%
viability, T/C [5]: 83.6%
viability, T/C [6]: 73.8%
viability, T/C [7]: 102%
viability, T/C [8]: 98.1%
viability, T/C [9]: 88.3%
viability, T/C [10]: 95.1%
viability, T/C [11]: 83%
viability, T/C [12]: 70.4%
viability, T/C [13]: 114%
viability, T/C [14]: 98.1%
viability, T/C [15]: 95.7%
viability, T/C [16]: 91.1%
viability, T/C [17]: 84.3%
viability, T/C [18]: 72.1%
viability, T/C [19]: 102%
viability, T/C [20]: 103%
viability, T/C [21]: 94.8%
viability, T/C [22]: 84%
viability, T/C [23]: 81.8%
viability, T/C [24]: 64.3%
viability, T/C [25]: 89.8%
viability, T/C [26]: 93.3%
viability, T/C [27]: 88.4%
viability, T/C [28]: 74.2%
viability, T/C [29]: 72.5%
viability, T/C [30]: 68.4%
viability, T/C [31]: 80.5%
viability, T/C [32]: 83.5%
viability, T/C [33]: 82.2%
viability, T/C [34]: 68.1%
viability, T/C [35]: 64.8%
viability, T/C [36]: 57.3%

IC50 (second compound 0.0316 µM): 0.187 µM
IC50 (second compound 0.1 µM): 0.185 µM
IC50 (second compound 0.316 µM): 0.17 µM
IC50 (second compound 1 µM): 0.171 µM
IC50 (second compound 3.16 µM): 0.159 µM
IC50 (second compound 10 µM): 0.125 µM
SMILES: O=C(c1ccc(F)c(F)c1Nc1ccc(I)cc1F)N1CC(O)([C@@H]2CCCCN2)C1 + C#Cc1c(F)ccc2cc(O)cc(-c3ncc4c(N5CC6CCC(C5)N6)nc(OCC56CCCN5CC(F)C6)nc4c3F)c12
viability, T/C (second compound 0.0316 µM, first compound 0.00316 µM): 108%
viability, T/C (second compound 0.0316 µM, first compound 0.01 µM): 105%
viability, T/C [1]: 90.7%
viability, T/C [2]: 87.1%
viability, T/C [3]: 19.3%
viability, T/C [4]: 3.6%
viability, T/C (second compound 0.1 µM, first compound 0.00316 µM): 113%
viability, T/C (second compound 0.1 µM, first compound 0.01 µM): 100%
viability, T/C [7]: 107%
viability, T/C [8]: 84.3%
viability, T/C [9]: 20.2%
viability, T/C [10]: 4.03%
viability, T/C (second compound 0.316 µM, first compound 0.00316 µM): 109%
viability, T/C (second compound 0.316 µM, first compound 0.01 µM): 106%
viability, T/C [13]: 95.6%
viability, T/C [14]: 77.7%
viability, T/C [15]: 18.3%
viability, T/C [16]: 4.22%
viability, T/C (second compound 1 µM, first compound 0.00316 µM): 105%
viability, T/C (second compound 1 µM, first compound 0.01 µM): 99.8%
viability, T/C [19]: 93.2%
viability, T/C [20]: 77.3%
viability, T/C [21]: 19.3%
viability, T/C [22]: 3.49%
viability, T/C (second compound 3.16 µM, first compound 0.00316 µM): 97%
viability, T/C (second compound 3.16 µM, first compound 0.01 µM): 89.7%
viability, T/C [25]: 91.3%
viability, T/C [26]: 73.1%
viability, T/C [27]: 15.6%
viability, T/C [28]: 4.86%
viability, T/C (second compound 10 µM, first compound 0.00316 µM): 86%
viability, T/C (second compound 10 µM, first compound 0.01 µM): 82.1%
viability, T/C [31]: 70.5%
viability, T/C [32]: 60.7%
viability, T/C [33]: 12.1%
viability, T/C [34]: 3.34%
